In series [1] the target is Nav1.1 (Homo sapiens (Human), UniProt P35498). The experiment in a line: Sodium Influx Assay (Flux), Nav1.1. Type of series: cell-based. Particulars: Trex HEK293 cells, ANG2 dye, inactivated state.
Series [2] concerns the target Nav1.6 (Homo sapiens (Human), UniProt Q9UQD0). The experiment in a line: Sodium Influx Assay (Flux), Nav1.6. Type of series: cell-based. Particulars: Trex HEK293 cells, ANG2 dye, inactivated state.
The target of series [3] is Nav1.5 (Homo sapiens (Human), UniProt Q14524). The experiment in a line: Sodium Influx Assay (Flux), Nav1.5.
Chain of Nav1.5 (Q14524 other isoform, or with tags, fused parts or gaps): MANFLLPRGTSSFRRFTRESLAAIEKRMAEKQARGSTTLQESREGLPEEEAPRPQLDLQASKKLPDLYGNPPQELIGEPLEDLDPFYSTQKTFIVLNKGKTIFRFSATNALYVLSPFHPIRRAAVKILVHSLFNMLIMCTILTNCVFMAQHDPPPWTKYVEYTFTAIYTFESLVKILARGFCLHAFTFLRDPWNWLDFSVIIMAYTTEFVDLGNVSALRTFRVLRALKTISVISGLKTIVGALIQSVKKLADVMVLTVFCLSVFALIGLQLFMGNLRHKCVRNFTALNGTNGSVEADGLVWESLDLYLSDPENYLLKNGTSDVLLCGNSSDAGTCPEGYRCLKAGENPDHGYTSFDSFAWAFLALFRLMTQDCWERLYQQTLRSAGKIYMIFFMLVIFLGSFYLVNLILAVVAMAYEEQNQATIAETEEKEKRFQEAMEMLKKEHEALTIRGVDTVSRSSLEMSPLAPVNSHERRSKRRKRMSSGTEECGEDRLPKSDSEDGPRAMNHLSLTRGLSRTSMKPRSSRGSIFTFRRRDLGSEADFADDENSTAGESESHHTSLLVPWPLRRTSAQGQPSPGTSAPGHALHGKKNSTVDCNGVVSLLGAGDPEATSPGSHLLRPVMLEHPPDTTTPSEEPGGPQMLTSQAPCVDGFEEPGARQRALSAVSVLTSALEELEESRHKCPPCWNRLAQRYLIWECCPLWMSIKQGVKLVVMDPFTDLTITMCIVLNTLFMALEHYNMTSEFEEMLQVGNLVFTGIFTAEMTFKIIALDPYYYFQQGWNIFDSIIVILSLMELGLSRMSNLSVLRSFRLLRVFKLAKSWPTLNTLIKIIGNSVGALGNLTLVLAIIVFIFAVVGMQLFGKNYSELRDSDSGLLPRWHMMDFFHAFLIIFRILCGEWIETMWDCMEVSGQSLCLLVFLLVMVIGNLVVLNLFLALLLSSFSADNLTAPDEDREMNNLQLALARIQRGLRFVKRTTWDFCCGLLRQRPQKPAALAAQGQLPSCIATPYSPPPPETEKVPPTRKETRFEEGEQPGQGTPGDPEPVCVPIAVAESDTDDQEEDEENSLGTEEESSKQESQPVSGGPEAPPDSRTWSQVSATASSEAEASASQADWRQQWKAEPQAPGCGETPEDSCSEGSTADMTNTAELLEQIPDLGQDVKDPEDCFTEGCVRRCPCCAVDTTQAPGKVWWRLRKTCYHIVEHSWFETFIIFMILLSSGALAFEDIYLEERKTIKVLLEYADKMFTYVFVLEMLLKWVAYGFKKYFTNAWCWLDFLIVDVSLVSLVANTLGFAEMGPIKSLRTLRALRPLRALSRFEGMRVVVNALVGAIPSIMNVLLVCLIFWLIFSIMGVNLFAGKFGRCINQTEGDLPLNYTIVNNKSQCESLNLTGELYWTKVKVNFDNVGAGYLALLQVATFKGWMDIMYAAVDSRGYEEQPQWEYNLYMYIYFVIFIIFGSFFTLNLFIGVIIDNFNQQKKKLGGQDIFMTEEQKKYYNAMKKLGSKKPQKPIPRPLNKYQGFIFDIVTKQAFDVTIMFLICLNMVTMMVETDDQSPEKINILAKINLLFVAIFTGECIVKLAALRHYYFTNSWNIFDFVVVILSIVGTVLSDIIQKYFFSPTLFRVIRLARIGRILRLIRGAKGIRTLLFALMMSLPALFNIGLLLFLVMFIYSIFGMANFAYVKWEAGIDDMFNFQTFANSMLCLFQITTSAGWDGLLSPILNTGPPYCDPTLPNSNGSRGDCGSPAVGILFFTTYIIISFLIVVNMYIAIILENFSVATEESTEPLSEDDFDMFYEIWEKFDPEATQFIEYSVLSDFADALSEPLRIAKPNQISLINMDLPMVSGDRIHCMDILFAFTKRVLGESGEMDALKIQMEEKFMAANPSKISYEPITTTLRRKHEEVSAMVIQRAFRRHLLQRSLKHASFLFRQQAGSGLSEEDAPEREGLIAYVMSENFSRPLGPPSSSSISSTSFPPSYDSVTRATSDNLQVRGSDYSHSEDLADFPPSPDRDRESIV
Setting [4] is: read-out: Flux NaV1.5 IC50, sodium influx assay, Trex HEK293 cells, ANG2 dye, inactivated state.

Structures can show the parent of a compound that is named as a salt. Where two headings read alike, the source gives them in different places.

This is an account of results in patent US10981905B2, “Heteroaryl-substituted sulfonamide compounds and their use as therapeutic agents” (Xenon Pharmaceuticals Inc., priority 2018, dated 2021).

Take `C[C@H](Nc1ncc(S(=O)(=O)Nc2cscn2)cc1Cl)c1cc(Cl)ccc1F` [Example 1, (S)-5-chloro-6-((1-(5-chloro-2-fluorophenyl)ethyl)amino)-N-(thiazol-4-yl)pyridine-3-sulfonamide]: the IC50 in series [1] was determined as 5 µM; in series [2], 2.82 µM; in series [3] (setting [4]) it was 5.57 µM.

In the case of `C[C@H](Nc1ncc(S(=O)(=O)Nc2cscn2)cc1Cl)c1ccccc1F` [Example 2, (S)-5-chloro-6-((1-(2-fluorophenyl)ethyl)amino)-N-(thiazol-4-yl)pyridine-3-sulfonamide], the IC50 in series [1] was 25.8 µM; in series [2], 13.2 µM; in series [3] (setting [4]) it was 20.4 µM.

As to `Cc1nc(S(=O)(=O)Nc2cscn2)ccc1N[C@@H](C)c1ccccc1F` [Example 3, (S)-5-((1-(2-fluorophenyl)ethyl)amino)-6-methyl-N-(thiazol-4-yl)pyridine-2-sulfonamide], the IC50 is 30 µM in series [1], 4.74 µM in series [2] and 30 µM in series [3] (setting [4]).

As for `O=S(=O)(Nc1cscn1)c1ccc(NCc2c(F)cccc2CN2CCC2)nc1` [Example 5, 6-((2-(azetidin-1-ylmethyl)-6-fluorobenzyl)amino)-N-(thiazol-4-yl)pyridine-3-sulfonamide], the IC50 in series [1] worked out at 30 µM; in series [2] it was 8.47 µM; in series [3] (setting [4]) it was 26.5 µM.

With `Cc1cc(S(=O)(=O)Nc2cscn2)ncc1NCc1c(F)cccc1CN1CCC1` [Example 7, 5-((2-(azetidin-1-ylmethyl)-6-fluorobenzyl)amino)-4-methyl-N-(thiazol-4-yl)pyridine-2-sulfonamide formic acid salt], the IC50 in series [1] was determined as 30 µM; in series [2], 5.82 µM; in series [3] (setting [4]), 30 µM.

`Cc1nc(S(=O)(=O)Nc2cscn2)ccc1NCc1c(F)cccc1CN1CCC1(C)C` [Example 8, 5-((2-((2,2-dimethylazetidin-1-yl)methyl)-6-fluorobenzyl)amino)-6-methyl-N-(thiazol-4-yl)pyridine-2-sulfonamide trifluoroacetic acid salt]: the figures for the IC50 in series [1], in series [2] and in series [3] (setting [4]) were 30 µM, 0.719 µM and 30 µM, respectively.

As for `Cc1cc(S(=O)(=O)Nc2cccc(F)n2)ncc1NCc1c(F)cccc1CN1CCC1` [Example 9, 5-((2-(azetidin-1-ylmethyl)-6-fluorobenzyl)amino)-N-(6-fluoropyridin-2-yl)-4-methylpyridine-2-sulfonamide], the IC50 was 30 µM in series [1], 0.917 µM in series [2] and 21.1 µM in series [3] (setting [4]).

Take `Cc1nc(NCc2c(F)cccc2CN(C)C(C)(C)C)ccc1S(=O)(=O)Nc1cscn1` [Example 10, 6-((2-((tert-butyl(methyl)amino)methyl)-6-fluorobenzyl)amino)-2-methyl-N-(thiazol-4-yl)pyridine-3-sulfonamide formic acid salt]: the IC50 was 23.6 µM in series [1], 5.31 µM in series [2] and 7.76 µM in series [3] (setting [4]).

Consider `CN(Cc1cccc(F)c1CNc1ncc(S(=O)(=O)Nc2cscn2)cc1Cl)C(C)(C)C` [Example 11, 6-((2-((tert-butyl(methyl)amino)methyl)-6-fluorobenzyl)amino)-5-chloro-N-(thiazol-4-yl)pyridine-3-sulfonamide formic acid salt], for which the IC50 came out at 11.7 µM in series [1], 8.37 µM in series [2] and 8.87 µM in series [3] (setting [4]).

As to `Cc1cc(S(=O)(=O)Nc2ccsn2)ncc1NCc1c(F)cccc1CN1CCC1` [Example 12, 5-((2-(azetidin-1-ylmethyl)-6-fluorobenzyl)amino)-N-(isothiazol-3-yl)-4-methylpyridine-2-sulfonamide trifluoroacetic acid salt], the IC50 is 30 µM in series [1], 3.43 µM in series [2] and 30 µM in series [3] (setting [4]).

For the molecule `Cc1cc(S(=O)(=O)Nc2cscn2)cnc1NCc1c(F)cccc1CN(C)C(C)(C)C` [Example 13, 6-((2-((tert-butyl(methyl)amino)methyl)-6-fluorobenzyl)amino)-5-methyl-N-(thiazol-4-yl)pyridine-3-sulfonamide formic acid salt], the figures for the concentration for half-maximal inhibition (IC50) in series [1], in series [2] and in series [3] (setting [4]) were 14.9 µM, 11.3 µM and 6.02 µM, respectively.

For `Cc1nc(S(=O)(=O)Nc2cscn2)ccc1NCc1c(F)cccc1CN1CC(C)(F)C1` [Example 14, 5-((2-fluoro-6-((3-fluoro-3-methylazetidin-1-yl)methyl)benzyl)amino)-6-methyl-N-(thiazol-4-yl)pyridine-2-sulfonamide], the IC50 was 13 µM in series [1], 0.382 µM in series [2] and 24.5 µM in series [3] (setting [4]).

`Cc1nc(S(=O)(=O)Nc2cscn2)ccc1NCc1c(F)cccc1CN(C)CC1CC1` [Example 15, 5-((2-(((cyclopropylmethyl)(methyl)amino)methyl)-6-fluorobenzyl)amino)-6-methyl-N-(thiazol-4-yl)pyridine-2-sulfonamide formic acid salt]: the IC50 in series [1] was 30 µM; in series [2], 0.286 µM; in series [3] (setting [4]) it was 21.6 µM.

`Cc1nc(S(=O)(=O)Nc2cscn2)ccc1NCc1cccc2ccncc12` [Example 16, 5-((isoquinolin-8-ylmethyl)amino)-6-methyl-N-(thiazol-4-yl)pyridine-2-sulfonamide formic acid salt]: the results for the IC50 in series [1], in series [2] and in series [3] (setting [4]) were 30 µM, 1.27 µM and 30 µM, respectively.

Consider `O=S(=O)(Nc1cscn1)c1cc(C(F)F)c(NCc2c(F)cccc2CN2CCCC2)cn1` [Example 17, 4-(difluoromethyl)-5-((2-fluoro-6-(pyrrolidin-1-ylmethyl)benzyl)amino)-N-(thiazol-4-yl)pyridine-2-sulfonamide formic acid salt], for which the values for the IC50 in series [1], in series [2] and in series [3] (setting [4]) were 30 µM, 1.46 µM and 30 µM, respectively.

Take `O=S(=O)(Nc1cscn1)c1ccc(NCc2c(F)cccc2CN2CCCC2)c(C(F)F)n1` [Example 18, 6-(difluoromethyl)-5-((2-fluoro-6-(pyrrolidin-1-ylmethyl)benzyl)amino)-N-(thiazol-4-yl)pyridine-2-sulfonamide formic acid salt]: the IC50 in series [1] was found to be 15.5 µM; in series [2], 0.015 µM; in series [3] (setting [4]) it was 21.4 µM.

Consider `Cc1nc(S(=O)(=O)Nc2cccc(F)n2)ccc1NCc1c(F)cccc1CN(C)C(C)(C)C` [Example 22, 5-((2-((tert-butyl(methyl)amino)methyl)-6-fluorobenzyl)amino)-N-(6-fluoropyridin-2-yl)-6-methylpyridine-2-sulfonamide trifluoroacetic acid salt], for which the 50% inhibitory concentration (IC50) in series [1] amounted to 30 µM; in series [2] it was 0.221 µM; in series [3] (setting [4]), 30 µM.

In the case of `Cc1sc(S(=O)(=O)Nc2cccc(F)n2)cc1NCc1c(F)cccc1Br` [Example 23, 4-((2-bromo-6-fluorobenzyl)amino)-N-(6-fluoropyridin-2-yl)-5-methylthiophene-2-sulfonamide], the values for the IC50 in series [1], in series [2] and in series [3] (setting [4]) were 7.68 µM, 9.54 µM and 30 µM, respectively.

For the molecule `Cc1nc(S(=O)(=O)Nc2cscn2)ccc1NCc1c(F)cccc1CN1CC(C)C1` [Example 24, 5-((2-fluoro-6-((3-methylazetidin-1-yl)methyl)benzyl)amino)-6-methyl-N-(thiazol-4-yl)pyridine-2-sulfonamide], the IC50 amounted to 30 µM in series [1], 0.074 µM in series [2] and 30 µM in series [3] (setting [4]).

Take `Cc1nc(S(=O)(=O)Nc2cscn2)ccc1NCc1ccccc1CN1CCC1` [Example 26, 5-((2-(azetidin-1-ylmethyl)benzyl)amino)-6-methyl-N-(thiazol-4-yl)pyridine-2-sulfonamide trifluoroacetic acid salt]: the IC50 in series [1] came out at 30 µM; in series [2], 0.242 µM; in series [3] (setting [4]) it was 30 µM.

Take `Cc1nc(S(=O)(=O)Nc2cscn2)ccc1NCc1cccc(F)c1CN1CCC1` [Example 27, 5-((2-(azetidin-1-ylmethyl)-3-fluorobenzyl)amino)-6-methyl-N-(thiazol-4-yl)pyridine-2-sulfonamide trifluoroacetic acid salt]: the IC50 in series [1] was found to be 30 µM; in series [2], 0.296 µM; in series [3] (setting [4]) it was 30 µM.

Regarding `Cc1nc(S(=O)(=O)Nc2cscn2)ccc1NCc1ccccc1CN(C)C(C)(C)C` [Example 28, 5-((2-((tert-butyl(methyl)amino)methyl)benzyl)amino)-6-methyl-N-(thiazol-4-yl)pyridine-2-sulfonamide trifluoroacetic acid salt], the half-maximal inhibitory concentration (IC50) was no less than 30 µM in series [1], 0.782 µM in series [2] and no less than 30 µM in series [3].

As for `Cc1nc(S(=O)(=O)Nc2cscn2)ccc1NCc1c(F)cccc1CN1CCCC1` [Example 30, 5-((2-fluoro-6-(pyrrolidin-1-ylmethyl)benzyl)amino)-6-methyl-N-(thiazol-4-yl)pyridine-2-sulfonamide trifluoroacetic acid salt], the IC50 in series [1] turned out to be 30 µM; in series [2], 0.111 µM; in series [3] (setting [4]), 30 µM.

As for `O=S(=O)(Nc1cscn1)c1cc(C(F)(F)F)c(NCc2c(F)cccc2CN2CCC2)cn1` [Example 31, 5-((2-(azetidin-1-ylmethyl)-6-fluorobenzyl)amino)-N-(thiazol-4-yl)-4-(trifluoromethyl)pyridine-2-sulfonamide], the IC50 in series [1] came to 30 µM; in series [2] it was 1.5 µM; in series [3] (setting [4]), 30 µM.

For `Cc1nc(S(=O)(=O)Nc2cccc(F)n2)c(F)cc1NCc1ccccc1CN(C)C(C)(C)C` [Example 32, 5-((2-((tert-butyl(methyl)amino)methyl)benzyl)amino)-3-fluoro-N-(6-fluoropyridin-2-yl)-6-methylpyridine-2-sulfonamide trifluoroacetic acid salt], the IC50 in series [1] came out at 16.7 µM; in series [2], 0.272 µM; in series [3] (setting [4]), 30 µM.
